Data from patent US11465980B2, “6-membered aza-heterocyclic containing delta-opioid receptor modulating compounds, methods of using and making the same” (Trevena, Inc., priority 2015, dated 2022).
Like-named read-outs stand apart in the source and are kept apart here.

Experiments:
[1] = target: T1, delta-opioid receptor (Accession NP_000902) (Homo sapiens, UniProt P41143); test: β-arrestin recruitment assay (DiscoveRx PathHunter); format: cell-based; details: HEK-293 cells
Experimental: (§1) Plasmids encoding delta-opioid receptor (Accession NP_000902), mu-opioid receptor (Accession NP_000905) and kappa-opioid receptor (Accession Assession NP_000903) were generated in the pCMV-Prolink backbone and transfected into an EA-arrestin parental human embryonic kidney (HEK-293) cell line from DiscoveRx Corporation. Clonal stable lines were subsequently selected under G418.
Cell lines were grown adherently in Minimum Essential Media (Cellgro cat #10-010-CM) containing 10% fetal bovine serum (Hyclone cat #SH30071.03), 4 mM glutamine (Cellgro cat #25-005-CI), 150 ug/ml hygromycin B (Cellgro cat #30-240-CR), 150 ug/ml G418 (Cellgro cat #30-234-CR), and 50 u/50 ug penicillin/streptomycin (Lonza cat #17-603E). Prior to the assay cells were removed from the flasks with CellStripper (Cellgro cat #25-056-CI), repeatedly pipetted to disperse cells, and spun at low speed for 5 min at room temperature. Cells were then resuspended at 250,000 cells/ml in growth media and plated at 5,000 cells/well in 384 well plates (Greiner part #784080). […]
Receptor mediated beta-arrestin recruitment was determined using the DiscoveRx β-arrestin PathHunter Detection kit (cat #93-0001). […] Following a 60 minute incubation at 37° C. the components of the DiscoveRx β-arrestin PathHunter Detection kit were added as directed and the plates were read after 1 hour on a BMG PheraStar plate reader.

[2] = target: T1, delta-opioid receptor (Accession NP_000902); test: cAMP assay (receptor G-protein mediated response, HTRF); format: cell-based
Experimental: as §1
Cell lines were grown adherently in Minimum Essential Media (Cellgro cat #10-010-CM) containing 10% fetal bovine serum (Hyclone cat #SH30071.03), 4 mM glutamine (Cellgro cat #25-005-CI), 150 ug/ml hygromycin B (Cellgro cat #30-240-CR), 150 ug/ml G418 (Cellgro cat #30-234-CR), and 50 u/50 ug penicillin/streptomycin (Lonza cat #17-603E). […]
Receptor G-protein mediated responses were determined by measuring changes in intracellular cAMP using CisBio HTRF cAMP HiRange kit (cat #62AM6PEJ) based on time-resolved fluorescence resonance energy transfer (TR-FRET). […] Following a 30 minute incubation at 37° C. the components of the cAMP HiRange kit were added as directed and the plates were read after 1 hour on a BMG PheraStar plate reader. Responses were measured as the ratio of fluorescence at 665 nm/620 nm per manufacturer's instructions.

rat [3] = test: Tactile allodynia produced by nitroglycerin (migraine model, rat); format: in vivo; details: route sc, nitroglycerin 10 mg/kg ip, p < 0.05 vs vehicle
mouse [4] = test: Tactile allodynia produced by nitroglycerin (migraine model, mouse); format: in vivo; details: route sc, nitroglycerin 10 mg/kg ip, p < 0.05 vs vehicle; for minimal effective dose: read-out: Active Migraine Doses
Experimental: Compounds were tested for efficacy in rodent models of nitroglycerine induced migraine. In this model both rats and mice can be induced to have a behavioral response consistent with the progression of a migraine attack by the intraperitoneal injection of nitroglycerin. In this test mice or rats (n=8/group) are given an intraperitoneal injection of nitroglycerin at 10 mg/kg. After 90 minutes the animals are subcutaneously dosed with test compound. A measurement of mechanical allodynia will be obtained using the up/down method with seven von Frey monofilaments. There is a specific series used for rat and mouse. Each monofilament is delivered to the hind paw for approximately 1-2 seconds. If there is a response, the next lower force will be delivered. This procedure will be performed until no response was made at the highest force or until four stimuli are administered following the initial response. The 50% paw withdrawal threshold for the hind paw will be calculated using the following formula: [Xth]log=[vFr]log+ky where [vFr] is the force of the last von Frey used, k is the average interval (in log units) between the von Frey monofilaments, and y is a value that depends upon the pattern of withdrawal responses. Testing for tactile sensitivity will be performed and a withdrawal value will be assigned as the tactile sensitivity (expressed in grams of force required to elicit a response) for the injected paw for each animal. Data is presented as the mean grams required to produce a hind paw withdrawal from the von Frey stimulus. […] Compounds found to be effective in this model of migraine at the doses indicated, although other doses may also be active. Other compounds described herein were not necessarily tested, but are expected to be able have some level of efficacy.

adult male C57 mice = test: Tail suspension test (TST); format: in vivo, mouse; details: route sc, p < 0.05 compared to vehicle-treated mice; for minimal effective dose: Mus musculus, read-out: Active TST Dose
Experimental: The experiments were performed using adult male C57 mice (6-10 weeks of age, 20-30 g, Hilltop Lab, PA). The mice were housed in standard rodent cages with stainless steel mesh wire bar lids in groups of 4 with controlled temperature and light cycle (6:00 a.m.-6:00 p.m.). Animals were given free access to food (Harlan Teklad Global 18% protein (Madison, Wis.)) and water during a minimum 2-day habituation period to the laboratory. Animals that were used in the study were handled, housed, and sacrificed (using compressed CO2) in accord with the current NIH guidelines regarding the use and care of laboratory animals, and all applicable local, state, and federal regulations and guidelines. Animals are identified by cage number, and by markings applied to the proximal tip of the tail using a permanent marker. Group sizes (n=8, and therefore 30-50 animals per study) provide reliable estimates of treatment effects, and this species and strain of mouse has been recognized as appropriate for pharmacology studies.
To measure efficacy of the compounds the compounds were tested using a tail suspension test. The tail suspension test is a behavioral test used to evaluate the efficacy of antidepressant drugs in rodents. In the TST, mice (n=8/group) were suspended by the tail with tape approximately 30-50 cm above the lab bench. Mice are positioned such that the base of their tail is perpendicular to the lab bench. Each mouse is given 1 trial that last 6 minutes. The total duration of immobility is calculated as the percentage of time that the mouse is immobile. The duration of immobility is the main parameter measured. This is calculated from the cumulated time during which the animals is absent of initiated movements including passive swaying. When antidepressant drugs are administered, immobility is decreased by a variety of classes of antidepressant drugs. One or more of the compounds show antidepressant activity.

mouse [5] = test: Tactile allodynia produced by intraplantar Freund's Complete Adjuvant, von Frey (mouse); format: in vivo; details: route sc, p < 0.05 vs vehicle
Experimental: (§2) Animals were acclimated to the vivarium for at least 48 hr prior to behavioral testing. Inflammation was induced for both rodent species with the administration of an intraplantar (subcutaneous injection into the plantar surface of the hind paw, i.pl.) injection of 0.10 ml Freund's Complete Adjuvant (FCA).
For mouse studies, the experiments were conducted 48 hours after FCA administration. Tactile allodynia was measured using a series of von Frey monofilaments. These filaments are bendable, plastic and intended to poke, not penetrate, the skin. Animals were placed in a Plexiglas chamber (approximately 10 cm×20 cm×25 cm) and allowed to habituate for 5-10 minutes. The chamber was positioned on top of a mesh screen so that von Frey monofilaments can be presented to the plantar surface of the hind paw that is inflamed. The measurement of tactile sensitivity for the injected hind paw is obtained using the up/down method (LaBuda and Little, 2005, J Neurosci. Methods, 144, 175) with […]. Each trial will start with a von Frey force of 0.6 grams delivered to the hind paw for approximately 1-2 seconds. If there was no withdrawal response, the next higher force was be delivered. If there was a response, the next lower force was delivered. This procedure was performed until no response was made at the highest force (2 grams) or until four stimuli are administered following the initial response. The 50% paw withdrawal threshold for the hind paw was be calculated using the following formula: [Xth]log=[vFi]log+ky where [vFr] is the force of the last von Frey used, k is the average interval (in log units) between the von Frey monofilaments, and y is a value that depends upon the pattern of withdrawal responses (Dixon, Annual Review Pharmacol Toxicol, 1980, 20, 441).

rat [6] = test: Mechanical allodynia after Freund's Complete Adjuvant, Randall-Selitto (rat); format: in vivo; details: route sc, p < 0.05 vs vehicle
Experimental: as §2
For rat studies, the experiments were conducted 24 hours after CFA administration. Rats are tested for mechanical allodynia in a Randall-Selitto apparatus. The inflamed paw is put on a pedestal and a pointed force of increasing intensity (0 to 250 grams) is applied to the paw. When the animal struggles to withdraw from the force the test is stopped and the force to induce that struggle is recorded. Data may be presented as mean grams of force to withdrawal or a percentage of the maximum possible effect.

T1 sequence (P41143 whole entry): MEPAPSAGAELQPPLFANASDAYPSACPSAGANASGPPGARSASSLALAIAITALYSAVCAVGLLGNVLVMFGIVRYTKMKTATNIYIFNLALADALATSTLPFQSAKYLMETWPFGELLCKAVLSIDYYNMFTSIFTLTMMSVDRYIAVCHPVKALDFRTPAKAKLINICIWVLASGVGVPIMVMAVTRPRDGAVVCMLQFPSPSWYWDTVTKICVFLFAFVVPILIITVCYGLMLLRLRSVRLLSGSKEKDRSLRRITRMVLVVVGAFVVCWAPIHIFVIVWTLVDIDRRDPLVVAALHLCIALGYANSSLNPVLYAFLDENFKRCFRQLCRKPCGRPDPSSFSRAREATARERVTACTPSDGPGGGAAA

SMILES	Active Migraine Doses (rat [3])	minimal effective dose (mouse [4])	minimal effective dose (adult male C57 mice; po)	also measured
Fc1ccc([C@@H]2CCNC[C@H]2COc2ccc3c(c2)OCO3)cc1 [Paroxetine]	–	–	–	hDOR B Span [1]: <100; EC50 ([1]; read-out: hDOR B pEC50 (converted)): > 1000 nM; hDOR G Span ([2]; G-protein mediated cAMP response, HEK-293 cells): <100; selectivity for the delta-opioid receptor ([2]; also tested at mu and kappa-opioid receptor): non-selectivity
COc1ccc([C@@H]2CCN(CCn3cccc3)[C@H](C)[C@H]2COc2ccc3c(c2)C(=O)NC3)cc1 [Compound B0876, (−)-6-{[trans, trans-4-(4-methoxyphenyl)-2-methyl-1-[2-(1H-pyrrol-1-yl)ethyl]piperidin-3-yl]methoxy}-2,3-dihydro-1H-isoindol-1-one]	≤10 mg/kg	≤ 10 mg/kg	≤ 30 mg/kg	–
COc1cc(F)cc([C@@H]2CCN(CCn3cccc3)[C@H](C)[C@H]2COc2ccc3c(c2)C(=O)NC3)c1 (racemic) [Compound B1401, (−)-6-{[trans, trans-4-(3-fluoro-5-methoxyphenyl)-2-methyl-1-[2-(1H-pyrrol-1-yl)ethyl]piperidin-3-yl]methoxy}-2,3-dihydro-1H-isoindol-1-one]	≤10 mg/kg	≤ 10 mg/kg	–	minimal effective dose (adult male C57 mice): ≤ 10 mg/kg
COCCOc1ccc([C@@H]2CCN(CCn3cccc3)[C@H](C)[C@H]2COc2ccc3c(c2)C(=O)NC3)cc1F [Compound B1205, (−)-6-{[trans, trans-4-[3-fluoro-4-(2-methoxyethoxy)phenyl]-2-methyl-1-[2-(1H-pyrrol-1-yl)ethyl]piperidin-3-yl]methoxy}-2,3-dihydro-1H-isoindol-1-one]	≤10 mg/kg	≤ 10 mg/kg	≤ 30 mg/kg	–
CC1C(COc2ccc3c(c2)C(=O)NC3)C(c2ccc3c(c2)OCCC3)CCN1CCn1cccc1 (single isomer, unassigned; (-)) [Compound B1365, (−)-6-{[trans, trans-4-(3,4-dihydro-2H-1-benzopyran-7-yl)-2-methyl-1-[2-(1H-pyrrol-1-yl)ethyl]piperidin-3-yl]methoxy}-2,3-dihydro-1H-isoindol-1-one]	≤10 mg/kg	–	–	Active Migraine Doses (mouse [4]): ≤10 mg/kg; Active TST Dose (adult male C57 mice): ≤10 mg/kg
C[C@@H]1[C@@H](COc2ccc3c(c2)C(=O)NC3)[C@H](c2ccccc2)CCN1CCC=C(F)F [Compound B1211]	–	≤ 10 mg/kg	–	minimal effective dose (adult male C57 mice): ≤ 10 mg/kg
COCCOc1ccc([C@@H]2CCN(CCc3ccccc3F)[C@H](C)[C@H]2COc2ccc3c(c2)C(=O)NC3)cc1 [Compound B1079]	–	–	≤ 30 mg/kg	–
COc1ccc([C@@H]2CCN(CCC=C(F)F)[C@H](C)[C@H]2COc2ccc3c(c2)C(=O)NC3)cc1 [Compound B1145, (−)-6-{[trans, trans-1-(4,4-difluorobut-3-en-1-yl)-4-(4-methoxyphenyl)-2-methylpiperidin-3-yl]methoxy}-2,3-dihydro-1H-isoindol-1-one]	–	≤ 10 mg/kg	≤ 10 mg/kg	Active CFA Dose (mouse [5]): ≤10 mg/kg
C[C@@H]1[C@@H](COc2ccc3c(c2)C(=O)NC3)[C@H](c2ccc(F)cc2)CCN1CC1CC1 [Compound B0720]	–	≤ 10 mg/kg	≤ 10 mg/kg	Active CFA Dose (rat [6]): ≤30 mg/kg
COc1cc(F)cc(C2CCN(CCn3cccc3)C(C)C2COc2ccc3c(c2)C(=O)NC3)c1 (mixture of isomers) [Compound B1274, (+/−)-6-{[(trans, trans)-4-(3-fluoro-5-methoxyphenyl)-2-methyl-1-[2-(1H-pyrrol-1-yl)ethyl]piperidin-3-yl]methoxy}-2,3-dihydro-1H-isoindol-1-one]	–	–	–	Active TST Dose (adult male C57 mice): ≤10 mg/kg
COCCOc1ccc([C@@H]2CCN(CCc3ccccc3)[C@H](C)[C@H]2COc2ccc3c(c2)C(=O)NC3)cc1F [Compound B1194, (−)-6-{[trans, trans-4-[3-fluoro-4-(2-methoxyethoxy)phenyl]-2-methyl-1-(2-phenylethy)piperidin-3-yl]methoxy}-2,3-dihydro-1H-isoindol-1-one]	–	≤ 10 mg/kg	–	minimal effective dose (adult male C57 mice): ≤ 10 mg/kg
